Test results as given in patent EP2518054A1, “AMIDE COMPOUND” (Takeda Pharmaceutical Company Limited, priority 2009, dated 2011).

Molecular target: T1, human GPR52 (Homo sapiens, UniProt Q9Y2T5)
T1 construct: expressed in transfected cells; host or cells: CHO(dhfr-) cells
Assay: Increase of intracellular cAMP concentration in human GPR52-expressing CHO cell (AlphaScreen cAMP assay)
Type: cell-based
Settings: human GPR52-expressing CHO(dhfr-) cells; for activity at 1 µM: CHO, 1µM test compound, 100% = cAMP with 1 µM Reference Example 79, 0% = DMSO, 37°C, 30 min, read-out: GPR52 agonist activity (%); for EC50: concentration of the test compound at which it shows 50% activity, read-out: GPR52 agonist activity EC50
Experimental: Increase of intracellular cAMP concentration in human GPR52-expressing CHO cell
Using OptiPlate-384 (PerkinElmer Inc.), 1×10^4 human GPR52-expressing CHO(dhfr-) cells were incubated together with various concentration(10^-5µM - 10µm) of a test compound in an assay buffer (30 µL, HBSS (containing Ca^2+ and Mg^2+), 0.5% BSA, 100 µM IBMX, 100 µM Ro20-1724, 5 mM HEPES (pH 7.55)) at 37°C for 30 min. Thereafter, according to the protocol of AlphaScreen CAMP Assay Kit (PerkinElmer Inc.), the intracellular cAMP concentration was measured by EnVision (PerkinElmer Inc.). The GPR52 agonist activity was calculated, assuming the intracellular cAMP concentration in the presence of […] N-(2-hydroxyethyl)-3-[2-[3-(trifluoromethyl)benzyl]-1-benzofuran-4-yl]benzamide (Reference Example 79) to be 100% and assuming the intracellular cAMP concentration when DMSO was added instead of the test compound to be 0%.

T1 sequence (Q9Y2T5 whole entry): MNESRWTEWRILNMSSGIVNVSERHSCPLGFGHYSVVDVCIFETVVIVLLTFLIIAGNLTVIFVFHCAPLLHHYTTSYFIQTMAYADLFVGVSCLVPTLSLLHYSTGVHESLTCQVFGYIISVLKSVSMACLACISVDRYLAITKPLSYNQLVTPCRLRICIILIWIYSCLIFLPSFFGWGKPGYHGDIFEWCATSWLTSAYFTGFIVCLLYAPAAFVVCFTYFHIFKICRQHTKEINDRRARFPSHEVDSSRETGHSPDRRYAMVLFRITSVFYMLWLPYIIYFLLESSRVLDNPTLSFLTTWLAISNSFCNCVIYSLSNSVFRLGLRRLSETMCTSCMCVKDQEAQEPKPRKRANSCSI

## Cc1nn(-c2ccc(F)c3cc(Cc4cccc(C(F)(F)F)c4)sc23)c(C)c1C(=O)NCCO [Example 62, 1-[4-fluoro-2-[3-(trifluoromethyl)benzyl]-1-benzothiophen-7-yl]-N-(2-hydroxyethyl)-3,5-dimethyl-1H-pyrazole-4-carboxamide]
  activity at 1 µM: 105%

## Cc1nn(-c2ccc(F)c3cc(Cc4cc(F)cc(Cl)c4)sc23)c(CO)c1C(=O)NCCO [Example 90, 1-[2-(3-chloro-5-fluorobenzyl)-4-fluoro-1-benzothiophen-7-yl]-N-(2-hydroxyethyl)-5-(hydroxymethyl)-3-methyl-1H-pyrazole-4-carboxamide]
  activity at 1 µM: 104%
  EC50: 14 nM

## NC(=O)CNC(=O)c1cn(-c2cccc3cc(Cc4cccc(C(F)(F)F)c4)sc23)nc1C1CC1 [Example 28, N-(2-amino-2-oxoethyl)-3-cyclopropyl-1-[2-[3-(trifluoromethyl)benzyl]-1-benzothiophen-7-yl]-1H-pyrazole-4-carboxamide]
  activity at 1 µM: 95%

## Cc1nc(-c2cccc3cc(Cc4cccc(C(F)(F)F)c4)sc23)sc1C(=O)NCCO [Example 39, N-(2-hydroxyethyl)-4-methyl-2-[2-[3-(trifluoromethyl)benzyl]-1-benzothiophen-7-yl]-1,3-thiazole-5-carboxamide]
  activity at 1 µM: 93%

## Cc1nn(-c2cccc3cc(Cc4cccc(C(F)(F)F)c4)sc23)cc1C(=O)NCC(N)=O [Example 16, N-(2-amino-2-oxoethyl)-3-methyl-1-[2-[3-(trifluoromethyl)benzyl]-1-benzothiophen-7-yl]-1H-pyrazole-4-carboxamide]
  activity at 1 µM: 94%

## Cc1nn(-c2ccc(F)c3cc(Cc4cc(F)cc(Cl)c4)sc23)c(C)c1C(=O)NCC(N)=O [Example 59, N-(2-amino-2-oxoethyl)-1-[2-(3-chloro-5-fluorobenzyl)-4-fluoro-1-benzothiophen-7-yl]-3,5-dimethyl-1H-pyrazole-4-carboxamide]
  activity at 1 µM: 93%

## Cc1nn(-c2cccc3cc(Cc4cc(F)cc(Cl)c4)sc23)c(C)c1C(=O)NCCO [Example 56, 1-[2-(3-chloro-5-fluorobenzyl)-1-benzothiophen-7-yl]-N-(2-hydroxyethyl)-3,5-dimethyl-1H-pyrazole-4-carboxamide]
  activity at 1 µM: 105%
  EC50: 6.9 nM

## Cc1nc(-c2cccc3cc(Cc4cccc(C(F)(F)F)c4)sc23)n(C)c1C(=O)NCC(N)=O [Example 47, N-(2-amino-2-oxoethyl)-1,4-dimethyl-2-[2-[3-(trifluoromethyl)benzyl]-1-benzothiophen-7-yl]-1H-imidazole-5-carboxamide]
  activity at 1 µM: 93%

## O=C(NCCO)c1cn(-c2cccc3cc(Cc4cccc(C(F)(F)F)c4)sc23)nc1C(F)(F)F [Example 20, N-(2-hydroxyethyl)-3-(trifluoromethyl)-1-[2-[3-(trifluoromethyl)benzyl]-1-benzothiophen-7-yl]-1H-pyrazole-4-carboxamide]
  activity at 1 µM: 79%

## Cc1c(C(N)=O)c(CO)nn1-c1cccc2cc(Cc3cccc(C(F)(F)F)c3)sc12 [Example 69, 3-(hydroxymethyl)-5-methyl-1-[2-[3-(trifluoromethyl)benzyl]-1-benzothiophen-7-yl]-1H-pyrazole-4-carboxamide]
  activity at 1 µM: 78%

## Cc1nn(-c2cccc3nn(Cc4cc(F)cc(C(F)(F)F)c4)cc23)c(C)c1C(=O)NCCO [Example 84, 1-[2-[3-fluoro-5-(trifluoromethyl)benzyl]-2H-indazol-4-yl]-N-(2-hydroxyethyl)-3,5-dimethyl-1H-pyrazole-4-carboxamide]
  activity at 1 µM: 105%

## Cc1nn(-c2ccc(F)c3cc(Cc4cccc(C(F)(F)F)c4)sc23)c(CO)c1C(=O)NCCO [Example 71, 1-[4-fluoro-2-[3-(trifluoromethyl)benzyl]-1-benzothiophen-7-yl]-N-(2-hydroxyethyl)-5-(hydroxymethyl)-3-methyl-1H-pyrazole-4-carboxamide]
  activity at 1 µM: 114%
  EC50: 27 nM

## O=C(NCCO)c1sc(-c2cccc3nn(Cc4cccc(C(F)(F)F)c4)cc23)nc1C(F)(F)F [Example 88, N-(2-hydroxyethyl)-4-(trifluoromethyl)-2-[2-[3-(trifluoromethyl)benzyl]-2H-indazol-4-yl]-1,3-thiazole-5-carboxamide]
  activity at 1 µM: 83%

## Cc1nn(-c2ccc(F)c3cc(Cc4cccc(C(F)(F)F)c4)sc23)c(CO)c1C(=O)NCC(N)=O [Example 72, N-(2-amino-2-oxoethyl)-1-[4-fluoro-2-[3-(trifluoromethyl)benzyl]-1-benzothiophen-7-yl]-5-(hydroxymethyl)-3-methyl-1H-pyrazole-4-carboxamide]
  activity at 1 µM: 96%

## Cc1c(C(N)=O)nc(-c2cccc3cc(Cc4cccc(C(F)(F)F)c4)sc23)n1C [Example 50, 1,5-dimethyl-2-[2-[3-(trifluoromethyl)benzyl]-1-benzothiophen-7-yl]-1H-imidazole-4-carboxamide]
  activity at 1 µM: 79%

## CC(C)c1nn(-c2cccc3cc(Cc4cccc(C(F)(F)F)c4)sc23)cc1C(=O)NCCO [Example 26, N-(2-hydroxyethyl)-3-(1-methylethyl)-1-[2-[3-(trifluoromethyl)benzyl]-1-benzothiophen-7-yl]-1H-pyrazole-4-carboxamide]
  activity at 1 µM: 96%

## COCCNC(=O)c1sc(-c2cccc3cc(Cc4cccc(C(F)(F)F)c4)sc23)nc1C [Example 40, N-(2-methoxyethyl)-4-methyl-2-[2-[3-(trifluoromethyl)benzyl]-1-benzothiophen-7-yl]-1,3-thiazole-5-carboxamide]
  activity at 1 µM: 90%

## Cc1nc(-c2cccc3oc(Cc4cccc(C(F)(F)F)c4)cc23)sc1C(N)=O [Example 44, 4-methyl-2-[2-[3-(trifluoromethyl)benzyl]-1-benzofuran-4-yl]-1,3-thiazole-5-carboxamide]
  activity at 1 µM: 92%

## Cc1nn(-c2ccc(F)c3cc(Cc4cccc(C(F)(F)F)c4)sc23)c(C)c1C(=O)NC1CC1 [Example 103, N-cyclopropyl-1-[4-fluoro-2-[3-(trifluoromethyl)benzyl]-1-benzothiophen-7-yl]-3,5-dimethyl-1 H-pyrazole-4-carboxamide]
  activity at 1 µM: 97%

## Cc1cccc(Cc2cc3cccc(-n4nc(C)c(C(=O)NCC(N)=O)c4C)c3s2)c1 [Example 93, N-(2-amino-2-oxoethyl)-3,5-dimethyl-1-[2-(3-methylbenzyl)-1-benzothiophen-7-yl]-1H-pyrazole-4-carboxamide]
  activity at 1 µM: 70%

## Cc1nc(-c2cccc3nn(Cc4cccc(C(F)(F)F)c4)cc23)sc1C(N)=O [Example 41, 4-methyl-2-[2-[3-(trifluoromethyl)benzyl]-2H-indazol-4-yl]-1,3-thiazole-5-carboxamide]
  EC50: 49 nM

## Cc1c(C(=O)NCC(N)=O)c(CO)nn1-c1cccc2cc(Cc3cccc(C(F)(F)F)c3)sc12 [Example 68, N-(2-amino-2-oxoethyl)-3-(hydroxymethyl)-5-methyl-1-[2-[3-(trifluoromethyl)benzyl]-1-benzothiophen-7-yl]-1H-pyrazole-4-carboxamide]
  activity at 1 µM: 88%
  EC50: 170 nM

## Cc1nn(-c2ccc(F)c3cc(Cc4cccc(C(F)(F)F)c4)sc23)c(C)c1C(N)=O [Example 61, 1-[4-fluoro-2-[3-(trifluoromethyl)benzyl]-1-benzothiophen-7-yl]-3,5-dimethyl-1H-pyrazole-4-carboxamide]
  activity at 1 µM: 93%

## Cc1nn(-c2cccc3cc(Cc4cc(F)cc(F)c4)sc23)c(C)c1C(=O)NCCO [Example 99, 1-[2-(3,5-difluorobenzyl)-1-benzothiophen-7-yl]-N-(2-hydroxyethyl)-3,5-dimethyl-1H-pyrazole-4-carboxamide]
  activity at 1 µM: 99%
  EC50: 13 nM

## Cc1nn(-c2cccc3nn(Cc4cccc(C(F)(F)F)c4)cc23)c(C)c1C(=O)NCCO [Example 79, N-(2-hydroxyethyl)-3,5-dimethyl-1-[2-[3-(trifluoromethyl)benzyl]-2H-indazol-4-yl]-1H-pyrazole-4-carboxamide]
  activity at 1 µM: 102%

## Cc1nn(-c2cccc3cc(Cc4cccc(C(F)(F)F)c4)sc23)c(CO)c1C(=O)NCC(N)=O [Example 63, N-(2-amino-2-oxoethyl)-5-(hydroxymethyl)-3-methyl-1-[2-[3-(trifluoromethyl)benzyl]-1-benzothiophen-7-yl]-1H-pyrazole-4-carboxamide]
  activity at 1 µM: 94%

## Cc1nn(-c2cccc3nn(Cc4cc(F)cc(C(F)(F)F)c4)cc23)c(C)c1C(N)=O [Example 83, 1-[2-[3-fluoro-5-(trifluoromethyl)benzyl]-2H-indazol-4-yl]-3,5-dimethyl-1H-pyrazole-4-carboxamide]
  activity at 1 µM: 104%

## Cc1nn(-c2cccc3nn(Cc4cc(F)cc(Cl)c4)cc23)c(C)c1C(=O)NCCO [Example 82, 1-[2-(3-chloro-5-fluorobenzyl)-2H-indazol-4-yl]-N-(2-hydroxyethyl)-3,5-dimethyl-1H-pyrazole-4-carboxamide]
  activity at 1 µM: 105%

## Cc1nc(-c2cccc3cc(Cc4cccc(C(F)(F)F)c4)sc23)n(C)c1C(N)=O [Example 48, 1,4-dimethyl-2-[2-[3-(trifluoromethyl)benzyl]-1-benzothiophen-7-yl]-1H-imidazole-5-carboxamide]
  activity at 1 µM: 89%
